Source: US10640534B2 (Agios Pharmaceuticals, Inc., priority 2012, dated 2020)

How the values were obtained:
[1] = test system: HT1080 cells; experiment: Cellular assay, inhibition of 2-HG production in HT1080 cells; assay type: cell-based; conditions: Homo sapiens, HT-1080, 48 h
Experimental: Cells (HT1080 or U87MG) are grown in T125 flasks in DMEM containing 10% FBS, 1× penicillin/streptomycin and 500 ug/mL G418 (present in U87MG cells only). They are harvested by trypsin and seeded into 96 well white bottom plates at a density of 5000 cell/well in 100 ul/well in DMEM with 10% FBS. […] Cells are incubated overnight at 37° C. in 5% CO2. The next day test compounds are made up at 2× the final concentration and 100 ul are added to each cell well. The final concentration of DMSO is 0.2% and the DMSO control wells are plated in row G. The plates are then placed in the incubator for 48 hours. […] The cell plate is placed back in the incubator for another 24 hours. At 72 hours post compound addition, 10 mL/plate of Promega Cell Titer Glo reagent is thawed and mixed. The cell plate is removed from the incubator and allowed to equilibrate to room temperature. Then 100 ul of Promega Cell Titer Glo reagent is added to each well of media. The cell plate is then placed on an orbital shaker for 10 minutes and then allowed to sit at room temperature for 20 minutes. The plate is then read for luminescence with an integration time of 500 ms.

[2] = test system: U87MG cells; experiment: Cellular assay, inhibition of 2-HG production in U87MG cells; assay type: cell-based; conditions: Homo sapiens, U-87 MG, 48 h
Outline: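 HT1080 or U87MG cells (U87MG kept with 500 ug/mL G418) seeded at 5000 cells/well and treated with compound at 0.2% final DMSO. Incubated 48 h at 37 °C. 2-HG inhibition determined by LC-MS. Viability read by CellTiter-Glo luminescence at 72 h post-dose.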

Structure (SMILES)	IC50 [1] [µM]	IC50 [2] [µM]
O=C(NC1CCC(F)(F)CC1)[C@@H](c1ccccc1Cl)N(C(=O)[C@@H]1CCC(=O)N1c1ncccn1)c1cccc(F)c1 [Compound 3, (S)—N—((R)-1-(2-Chlorophenyl)-2-((4,4-difluorocyclohexyl)amino)-2-oxoethyl)-N-(3-fluorophenyl)-5-oxo-1-(pyrimidin-2-yl)pyrrolidine-2-carboxamide]	0.1 to 0.5	–
O=C(NC1CC(F)C1)[C@H](c1ccccc1Cl)N(C(=O)[C@@H]1CCC(=O)N1c1ncccn1)c1cccc(F)c1 (stereo partly shown) [Compound 49]	0.1 to 0.5	0.1 to 0.5
O=C(NC1CCCCC1)[C@@H](c1ccccc1Cl)N(C(=O)[C@@H]1CCC(=O)N1c1ncccn1)c1cccc(F)c1 [Compound 6]	0.1 to 0.5	–
Cc1cccc(N2C(=O)CC[C@H]2C(=O)N(c2cccc(F)c2)[C@H](C(=O)NC2CC(F)(F)C2)c2ccccc2Cl)n1 [Compound 28]	< 0.1	–
N#Cc1cnc(N2C(=O)CC[C@H]2C(=O)N(c2cc(F)cc(F)c2)[C@H](C(=O)NC2CC(F)(F)C2)c2ccccc2Cl)o1 [Compound 162, (S)—N—((S)-1-(2-chlorophenyl)-2-((3,3-difluorocyclobutyl)amino)-2-oxoethyl)-1-(5-cyanooxazol-2-yl)-N-(3,5-difluorophenyl)-5-oxopyrrolidine-2-carboxamide]	–	< 0.1
N#Cc1ccnc(N2C(=O)[C@@H](O)C[C@H]2C(=O)N(c2cccc(F)c2)[C@H](C(=O)NC2CC(F)(F)C2)c2ccccc2Cl)c1 [Compound 118, (2S,4S)—N—((S)-1-(2-Chlorophenyl)-2-(3,3-difluorocyclobutylamino)-2-oxoethyl)-1-(4-cyano-pyridin-2-yl)-N-(3-fluorophenyl)-4-hydroxy-5-oxopyrrolidine-2-carboxamide]	–	< 0.1
N#Cc1ccnc(N2C(=O)[C@H](O)C[C@H]2C(=O)N(c2cccc(F)c2)[C@H](C(=O)NC2CC(F)(F)C2)c2ccccc2Cl)c1 [Compound 113, (2S,4R)—N—((S)-1-(2-Chlorophenyl)-2-(3,3-difluorocyclobutylamino)-2-oxoethyl)-1-(4-cyanopyridin-2-yl)-N-(3-fluorophenyl)-4-hydroxy-5-oxopyrrolidine-2-carboxamide]	–	< 0.1
N#Cc1ccnc(N2C(=O)CNC[C@H]2C(=O)N(c2cc(F)cc(F)c2)[C@H](C(=O)NC2CC(F)(F)C2)c2ccccc2Cl)c1 [Compound 100, (S)—N—((S)-1-(2-Chlorophenyl)-2-((3,3-difluorocyclobutyl)amino)-2-oxoethyl)-1-(4-cyanopyridin-2-yl)-N-(3,5-difluorophenyl)-6-oxopiperazine-2-carboxamide]	–	< 0.1
N#Cc1cccc(N(C(=O)[C@@H]2CCC(=O)N2c2cc(C#N)ccn2)[C@H](C(=O)NC2CC(F)(F)C2)c2ccccc2Cl)c1 [Compound 128, (S)—N—((S)-1-(2-Chlorophenyl)-2-((3,3-difluorocyclobutyl)amino)-2-oxoethyl)-N-(3-cyano-phenyl)-1-(4-cyanopyridin-2-yl)-5-oxopyrrolidine-2-carboxamide]	–	< 0.1
O=C(NC1CC(F)(F)C1)[C@H](c1ccccc1Cl)N(C(=O)[C@@H]1COC(=O)N1c1cscn1)c1cccc(F)c1 [Compound 72, (S)—N—((S)-1-(2-Chlorophenyl)-2-((3,3-difluorocyclobutyl)amino)-2-oxoethyl)-N-(3-fluorophenyl)-2-oxo-3-(thiazol-4-yl)oxazolidine-4-carboxamide]	–	< 0.1
N#Cc1cc(F)cc(N(C(=O)[C@@H]2CCC(=O)N2c2cc(C#N)ccn2)[C@H](C(=O)NC2CCC(F)(F)CC2)c2ccccc2Cl)c1 [Compound 184, (S)—N—((S)-1-(2-Chlorophenyl)-2-(4,4-difluorocyclohexylamino)-2-oxoethyl)-N-(3-cyano-5-fluorophenyl)-1-(4-cyanopyridin-2-yl)-5-oxopyrrolidine-2-carboxamide]	–	< 0.1
CS(=O)(=O)c1cc(F)cc(N(C(=O)[C@@H]2CCC(=O)N2c2nccc(C#N)n2)[C@H](C(=O)NC2CC(F)(F)C2)c2ccccc2Cl)c1 [Compound 109, (S)—N—((S)-1-(2-Chlorophenyl)-2-((3,3-difluorocyclobutyl)amino)-2-oxoethyl)-1-(4-cyanopyrimidin-2-yl)-N-(3-fluoro-5-(methylsulfonyl)phenyl)-5-oxopyrrolidine-2-carboxamide]	–	0.1 to 0.5
N#Cc1ccnc(N2C(=O)CCC[C@H]2C(=O)N(c2cccc(F)c2)[C@H](C(=O)NC2CCC(F)(F)CC2)c2ccccc2Cl)c1 [Compound 75, (S)—N—((S)-1-(2-Chlorophenyl)-2-((4,4-difluorocyclohexyl)amino)-2-oxoethyl)-1-(4-cyano-pyridin-2-yl)-N-(3-fluorophenyl)-6-oxopiperidine-2-carboxamide]	–	< 0.1
N#Cc1ccnc(N2C(=O)CC[C@H]2C(=O)N(c2cccc(C3(O)CC3)c2)[C@H](C(=O)NC2CC(F)(F)C2)c2ccccc2Cl)c1 [Compound 140, (S)—N—((S)-1-(2-Chlorophenyl)-2-(3,3-difluorocyclobutylamino)-2-oxoethyl)-1-(4-cyanopyridin-2-yl)-N-(3-(1-hydroxycyclopropyl)phenyl)-5-oxopyrrolidine-2-carboxamide]	–	< 0.1
CC(=O)N1CC(=O)N(c2cc(C#N)ccn2)[C@H](C(=O)N(c2cccc(F)c2)[C@H](C(=O)NC2CC(F)(F)C2)c2ccccc2Cl)C1 [Compound 92, (S)-4-Acetyl-N—((S)-1-(2-chlorophenyl)-2-(3,3-difluorocyclobutylamino)-2-oxoethyl)-1-(4-cyanopyridin-2-yl)-N-(3-fluorophenyl)-6-oxopiperazine-2-carboxamide]	–	< 0.1
N#Cc1cc(F)cc(N(C(=O)[C@@H]2C[C@@H](O)C(=O)N2c2cc(C#N)ccn2)C(C(=O)NC2CC(F)(F)C2)c2ccccc2Cl)c1 (stereo partly drawn) [Compound 169, (2S,4R)—N-(1-(2-Chlorophenyl)-2-(3,3-difluorocyclobutylamino)-2-oxoethyl)-N-(3-cyano-5-fluorophenyl)-1-(4-cyanopyridin-2-yl)-4-hydroxy-5-oxopyrrolidine-2-carboxamide]	–	< 0.1
N#Cc1ccnc(N2C(=O)CC[C@H]2C(=O)N(c2cncc(F)c2)C(C(=O)NC2CC(F)(F)C2)c2ccccc2Cl)c1 (stereo partly shown) [Compound 91]	–	< 0.1
N#Cc1ccnc(N2C(=O)[C@H](O)C[C@H]2C(=O)N(c2cccc(F)c2)[C@@H](C(=O)NC2CCC(F)(F)CC2)c2ccccc2Cl)n1 [Compound 122, (2S,4R)—N—((R)-1-(2-Chlorophenyl)-2-((4,4-difluorocyclohexyl)amino)-2-oxoethyl)-1-(4-cyanopyrimidin-2-yl)-N-(3-fluorophenyl)-4-hydroxy-5-oxopyrrolidine-2-carboxamide]	–	0.1 to 0.5
CN1CC(=O)N(c2cc(C#N)ccn2)[C@H](C(=O)N(c2cc(F)cc(F)c2)[C@H](C(=O)NC2CC(F)(F)C2)c2ccccc2Cl)C1 [Compound 101, (S)—N—((S)-1-(2-chlorophenyl)-2-((3,3-difluorocyclobutyl)amino)-2-oxoethyl)-1-(4-cyanopyridin-2-yl)-N-(3,5-difluorophenyl)-4-methyl-6-oxopiperazine-2-carboxamide]	–	< 0.1
N#Cc1ccnc(N2C(=O)CC[C@H]2C(=O)N(c2cc(F)cc(F)c2)[C@H](C(=O)NC2CCC(F)(F)CC2)c2ccccc2Cl)c1 [Compound 81, (2S)—N-(1-(2-Chlorophenyl)-2-(4,4-difluorocyclohexylamino)-2-oxoethyl)-1-(4-cyanopyridin-2-yl)-N-(3,5-difluorophenyl)-5-oxopyrrolidine-2-carboxamide]	–	< 0.1
N#Cc1ccnc(N2C(=O)OCC[C@H]2C(=O)N(c2cncc(F)c2)[C@H](C(=O)NC2CC(F)(F)C2)c2ccccc2Cl)c1 [Compound 143, (S)—N—((S)-1-(2-Chlorophenyl)-2-((3,3-difluorocyclobutyl)amino)-2-oxoethyl)-3-(4-cyanopyridin-2-yl)-N-(5-fluoropyridin-3-yl)-2-oxo-1,3-oxazinane-4-carboxamide]	–	< 0.1
N#Cc1ccnc(N2C(=O)[C@H](O)C[C@H]2C(=O)N(c2cc(F)cc(F)c2)[C@@H](C(=O)NC2CC(F)(F)C2)c2ccccc2Cl)c1 [Compound 114, (2S,4R)—N—((R)-1-(2-Chlorophenyl)-2-((3,3-difluorocyclobutyl)amino)-2-oxoethyl)-1-(4-cyanopyridin-2-yl)-N-(3,5-difluorophenyl)-4-hydroxy-5-oxopyrrolidine-2-carboxamide]	–	< 0.1
CCOC(=O)CN1C[C@@H](C(=O)N(c2cccc(F)c2)C(C(=O)NC2CC(F)(F)C2)c2ccccc2Cl)N(c2cc(C#N)ccn2)C1=O (stereo partly drawn) [Compound 94, Ethyl 2-((4S)-4-((1-(2-chlorophenyl)-2-((3,3-difluorocyclobutyl)amino)-2-oxoethyl)(3-fluorophenyl)carbamoyl)-3-(4-cyanopyridin-2-yl)-2-oxoimidazolidin-1-yl)acetate]	–	< 0.1
N#Cc1ccnc(N2C(=O)CC[C@H]2C(=O)N(c2cc(F)cc(F)c2)[C@H](C(=O)NC2CCC(F)(F)CC2)c2ccccc2Cl)n1 [Compound 87, (S)—N—((S)-1-(2-Chlorophenyl)-2-((4,4-difluorocyclohexyl)amino)-2-oxoethyl)-1-(4-cyanopyrimidin-2-yl)-N-(3,5-difluorophenyl)-5-oxopyrrolidine-2-carboxamide]	–	< 0.1
